The results in this text go back to patent US10160705B2, “Class of HDAC inhibitors expands the renal progenitor cells population and improves the rate of recovery from acute kidney injury” (University of Pittsburgh—Of the Commonwealth System of …, priority 2011, dated 2018).

pEC50: −log10 of the molar value.

This test relates to renal progenitor cells. The test can be described thus: In situ hybridization for lhx1a expression in 10-somite embryos (renal progenitor cell expansion). The test is classed as in vivo. The note with it: for responders at 0.8 µM / responders at 1.5 µM / responders at 3 µM / pEC50 / responders at 0.4 µM / responders at 0.2 µM: Danio rerio; for responders at 0.8 µM / responders at 1.5 µM / responders at 3 µM / responders at 0.4 µM / responders at 0.2 µM: percent of embryos with expanded kidney field; for responders at 0.8 µM: 800 nM, read-out: Expansion of Cells (including repeats* and recounts**) 800 nM; for responders at 1.5 µM: read-out: Expansion of Cells (including repeats* and recounts**) 1.5 μM; for responders at 3 µM: read-out: Expansion of Cells (including repeats* and recounts**) 3 μM; for pEC50: first pass EC50 from percent expansion (Excel trendline), average where several experiments; for responders at 0.4 µM: 400 nM, read-out: Expansion of Cells (including repeats* and recounts**) 400 nM; for responders at 0.2 µM: 200 nM, read-out: Expansion of Cells (including repeats* and recounts**) 200 nM. The procedure: PTBA was synthesized as described below. Hydroxyurea and aphidicolin were obtained from Sigma-Aldrich.
In situ hybridization and immunocytochemistry: In situ hybridization was performed as previously described with some modifications.142 Hybridization temperature was 65° C. Embryos were blocked in 2% blocking reagent (Roche) with 5% sheep serum in MAB (100 mM maleic acid and 150 mM NaCl [pH 7.5]). Whole-mount immunocytochemistry with 1:25 mouse anti-α6F antibody (Developmental Studies Hybridoma Bank) and 1:100 Cy3 secondary antibody (Jackson ImmunoResearch) was performed as described previously.108 Embryos were embedded in JB-4 for sectioning per the manufacturer's instructions (Polysciences), sectioned at 5 μm, and mounted with Cytoseal 60 (Richard-Allan Scientific).
The remaining PTBA analogs were synthesized.
In situ hybridization for lhx1a was performed as described above. […] Compounds were classified as effective, partially-effective or ineffective based on comparison to the effects of PTBA at a given concentration.
Testing of the compounds is on-going, but for those tested, Table 6 provides first pass EC50s based upon colormetric in situ hybridizations for the Lhx1a mRNA expression levels. After the procedure is run, in situ hybridization is done for the lhx1 mRNA expression and the number of embryos that show an expanded kidney field is manually counted to establish the percent of embryos showing expansion. Then the EC50 is determined by plotting the percent expansion in Excel, graphing the results and using the trendline function to determine the 50 percent point.

Regarding `NC(CCSc1ccccc1)C(=O)O` (stereo not drawn) [Compound 2-amino-PTBA, 2-amino-PTBA, reference compound], the “lhx1a expansion, percent of treated embryos” value (3 μM from 2 hpf, 10-somite embryos) is recorded as “no expansion”.
Take `COC(=O)CCCCSc1ccc(F)cc1` [UPHD-00032, methyl 5-[(4-fluoro-phenyl)sulfanyl]pentanoate]: the responders at 0.8 µM turned out to be 0%, the responders at 1.5 µM is 0%, the responders at 3 µM is 0% and the negative-log EC50 (pEC50) was less than 5.52.
On to `COC(=O)CCCCSc1ccccc1` [UPHD-00033, methyl 5-(phenylsulfanyl)pentanoate], for which the responders at 0.8 µM came to 0%, the responders at 1.5 µM came to 5%, the responders at 3 µM was 11% and the pEC50 is less than 5.52.
On to `O=C(CCCCSc1ccc(F)cc1)NO` [UPHD-00034, 5-[(4-fluoro-phenyl)sulfanyl]-N-hydroxypentanamide], for which the responders at 0.4 µM was 10%.
As to `O=C(CCCCSc1ccccc1)NO` [UPHD-00035, N-hydroxy-5-(phenyl-sulfanyl)pentanamide], the responders at 0.2 µM is 25%, the responders at 0.4 µM turned out to be 10%, the responders at 0.8 µM turned out to be 0% and the responders at 1.5 µM turned out to be 0%. The responders at 3 µM is 21.1% and the pEC50 was less than 5.52.
For `Nc1ccccc1NC(=O)CCCSc1ccccc1` [UPHD-00036, N-(2-aminophenyl)-4-(phenylsulfanyl)butanamide], the responders at 0.8 µM is 45%, the responders at 1.5 µM stood at 85% and the responders at 3 µM was 100%.
For the compound `Nc1ccccc1NC(=O)CCCCSc1ccc(F)cc1` [UPHD-00037, N-(2-aminophenyl)-5-[(4-fluoro-phenyl)sulfanyl]pentanamide], the responders at 0.2 µM turned out to be 10% and the negative logarithm of the EC50 (pEC50) was 5.59.
With `Nc1ccccc1NC(=O)CCCCSc1ccccc1` [UPHD-00038, N-(2-aminophenyl)-5-(phenylsulfanyl)pentanamide], the responders at 0.8 µM was determined as 58%, the responders at 1.5 µM amounted to 81% and the responders at 3 µM amounted to 85%.
Consider `COC(=O)CCCCCCSc1ccc(F)cc1` [UPHD-00039, methyl 7-[(4-fluor-phenyl)sulfanyl]heptanoate], for which the responders at 0.8 µM stood at 20%, the responders at 1.5 µM was 35%, the responders at 3 µM came to 11% and the pEC50 was less than 5.52.
For `COC(=O)CCCCCCSc1ccccc1` [UPHD-00040, methyl 7-(phenylsulfanyl)heptanoate] the same measures were 6%, 15%, 45% and less than 5.52.
For `O=C(CCCCCCSc1ccccc1)NO` [UPHD-00041, N-hydroxy-7-(phenyl-sulfanyl)heptanamide] the same measures were 0%, 0%, 0% and less than 5.52.
`O=C(CCCCCCSc1ccc(F)cc1)NO` [UPHD-00042, 7-[(4-fluoro-phenyl)sulfanyl]-N-hydroxyheptanamide]: the negative-log EC50 (pEC50) was less than 5.52.
As to `Nc1ccccc1NC(=O)CCCCCCSc1ccc(F)cc1` [UPHD-00043, N-(2-aminophenyl)-7-[(4-fluoro-phenyl)sulfanyl]heptanamide], the responders at 0.2 µM amounted to 0%, the responders at 0.4 µM came to 15%, the responders at 3 µM is 57% and the pEC50 was 5.52.
On to `Nc1ccccc1NC(=O)CCCCCCSc1ccccc1` [UPHD-00044, N-(2-aminophenyl)-7-(phenylsulfanyl)heptanamide], for which the pEC50 is 5.83.
With `COC(=O)c1ccc(CSc2ccccc2)cc1` [UPHD-00045, methyl 4[(phenyl-sulfanyl)methyl]benzoate], the responders at 0.8 µM stood at 17%, the responders at 1.5 µM amounted to 0%, the responders at 3 µM is 17% and the negative-log EC50 (pEC50) is less than 5.52.
`COC(=O)c1ccc(CSc2ccc(F)cc2)cc1` [UPHD-00046, methyl 4-{[(4-fluoro-phenyl)sul-fanyl]methyl}benzoate]: the responders at 0.8 µM was determined as 17%, the responders at 1.5 µM was determined as 30%, the responders at 3 µM is 20% and the pEC50 was less than 5.52.
Consider `COC(=O)CCCCCSc1ccccc1` [UPHD-00047, methyl 6-(phenyl-sulfanyl)hexanoate], for which the responders at 0.8 µM came out at 100%, the responders at 1.5 µM came out at 100%, the responders at 3 µM turned out to be 100% and the pEC50 is 6.40.
Consider `COC(=O)CCCCCSc1ccc(F)cc1` [UPHD-00048, methyl 6-[(4-fluoro-phenyl)sulfanyl]hexanoate], for which the responders at 0.8 µM was determined as 100%, the responders at 1.5 µM was determined as 100%, the responders at 3 µM came to 100% and the negative logarithm of the EC50 (pEC50) was 6.55.
In the case of `Nc1ccccc1NC(=O)CCCCCSc1ccccc1` [UPHD-00049, N-(2-aminophenyl)-6-(phenylsulfanyl)hexanamide], the responders at 0.2 µM stood at 5%, the responders at 0.4 µM is 35%, the responders at 0.8 µM worked out at 60% and the responders at 1.5 µM came out at 95%. Besides, the responders at 3 µM was 100% and the negative-log EC50 (pEC50) is 6.05.
As for `O=C(CCCCCSc1ccccc1)NO` [UPHD-00050, N-hydroxy-6-(phenyl-sulfanyl)hexanamide], the responders at 0.8 µM came out at 0%, the responders at 1.5 µM turned out to be 0%, the responders at 3 µM worked out at 0% and the negative-log EC50 (pEC50) is less than 5.52.
As for `O=C(CCCCCSc1ccc(F)cc1)NO` [UPHD-00051, 6-[(4-fluoro-phenyl)sulfanyl]-N-hydroxyhexanamide], the responders at 3 µM turned out to be 86.7% and the pEC50 was 5.72.
For `O=C(NO)c1ccc(CSc2ccccc2)cc1` [UPHD-00052, N-hydroxy-4-[(phenyl-sulfanyl)methyl]benzamide], the responders at 0.2 µM came to 0%, the responders at 0.4 µM is 0%, the responders at 0.8 µM was found to be 0% and the responders at 1.5 µM was 10%. The compound further gave a pEC50 of less than 5.52.
For `Nc1ccccc1NC(=O)CCCCCSc1ccc(F)cc1` [UPHD-00053, N-(2-aminophenyl)-6-[(4-fluoro-phenyl)sulfanyl]hexanamide], the responders at 0.2 µM is 20%, the responders at 0.4 µM was determined as 5%, the responders at 0.8 µM worked out at 85% and the responders at 1.5 µM was 100%. Further, the responders at 3 µM was 100% and the pEC50 was 6.10.
Turning to `COC(=O)CCCCCSc1ccc2ccccc2c1` [UPHD-00057, methyl 6-(naphthalen-2-ylsulfanyl)hexanoate], the responders at 0.2 µM amounted to 19%, the responders at 0.4 µM is 19%, the responders at 0.8 µM was found to be 11% and the responders at 1.5 µM was 18%. In addition, the responders at 3 µM came out at 29% and the pEC50 is less than 5.52.
Take `COC(=O)CCCCCSc1ncccn1` [UPHD-00058, methyl 6-(pyrimidin-2-ylsulfanyl)hexanoate]: the responders at 0.2 µM was determined as 17%, the responders at 0.4 µM was 33%, the responders at 0.8 µM came out at 20% and the responders at 1.5 µM came to 28%. The responders at 3 µM amounted to 6% and the pEC50 was less than 5.52.
As for `O=C(CCCCCSc1ccc2ccccc2c1)NO` [UPHD-00059, N-hydroxy-6-(naphthalen-2-ylsulfanyl)hexanamide], the responders at 0.2 µM came out at 0%, the responders at 0.4 µM stood at 5%, the responders at 0.8 µM came to 12% and the responders at 1.5 µM is 16%. For the same compound, the responders at 3 µM was found to be 33% and the pEC50 was less than 5.52.
Regarding `Nc1ccccc1NC(=O)CCCCCSc1ccc2ccccc2c1` [UPHD-00060, N-(2-aminophenyl)-6-(naphthalen-2-ylsulfanyl)hexanamide], the responders at 0.2 µM came to 5%, the responders at 0.4 µM was found to be 0%, the responders at 0.8 µM was determined as 10% and the responders at 1.5 µM was determined as 20%. Further, the responders at 3 µM stood at 5% and the negative logarithm of the EC50 (pEC50) is less than 5.52.
For the compound `O=C(NO)c1ccc(CCSc2ccccc2)cc1` [UPHD-00061, N-hydroxy-4-[2-(phenyl-sulfanyl)ethyl]benzamide], the responders at 0.2 µM was determined as 5.5%, the responders at 0.4 µM was found to be 0%, the responders at 0.8 µM stood at 0% and the responders at 1.5 µM stood at 6%. Also, the responders at 3 µM amounted to 37% and the pEC50 is less than 5.52.
As to `COC(=O)CCCCCSc1nc2ccccc2s1` [UPHD-00062], the responders at 0.2 µM was found to be 11%, the responders at 0.4 µM was 12%, the responders at 0.8 µM was determined as 0% and the responders at 1.5 µM amounted to 0%. Further, the responders at 3 µM is 0% and the pEC50 is less than 5.52.
